Measurements: patent US20070134744A1, “Epothilone resistant cell lines” (priority 2000, published 2007)

Columns and labels:
[1] = target: T1, tubulin in 297/C5/0 cells (Homo sapiens, UniProt P07437, T274P); assay: Cell-based tubulin polymerization assay; conditions: 2 hours, 0-1000 nM, vs KB-31
T1 construct: endogenous in cells; host or cells: 297/C5/0 and 298/D4/40 sublines of KB-31 (intact cells or hypotonic lysates)
Experimental: (§1) Drug-induced changes in the ratios between unpolymerized and polymerized tubulin in intact and lysed cells, respectively, are assessed basically as described (Giannakakou et al, Int. J. Cancer 75: 57-63 (1998)). Briefly, for the assessment of cellular drug effects, 2×10^5 cells are seeded in a volume of 1 ml to maximally 6 wells per 24-well plate. After incubation for 18-24 hrs at 37° C. to allow for cell attachment, test substances are added to the cell culture medium to achieve the desired concentrations, followed by incubation of the cells for 2 hrs at 37° C. Final vehicle concentration is 1%. One plate at a time is then transferred to a dimmed tissue-culture hood and cells are washed twice with 1 ml of room-temperature phosphate-buffered saline lacking Ca^++ and Mg^++ (PBS/O). After careful removal of remaining PBS/O, 100 μl of room-temperature Hypotonic Lysis Buffer A (HLB/A: 20 mM Tris-HCl (pH 6.8), 1 mM Mg2Cl, 2 mM EGTA, 2 mM Pefabloc, 1 mM benzamidine, 10 μg/ml aprotinin, 10 μg/ml leupeptin, 0.5% Nonidet P-40) is added and plates are wrapped in aluminum foil to minimize artifacts due to light-driven tubulin polymerization. Following incubation for exactly 5 min at 37° C., cells are harvested by scraping and transferred to a room-temperature eppendorf tube. Harvested wells are washed once with 100 μl room temperature HLB/A and pooled with the corresponding initial samples. Tubes are vortexed for 5 seconds to aid cell lysis, followed by centrifugation for 10 min at room-temperature in a table-top centrifuge at 12′000×g to separate microtubules (pellet) from unpolymerized tubulin (supernatant). The supernatant is then carefully transferred to a fresh eppendorf tube and stored on ice until further processed. Meanwhile, the pelleted material is resuspended in 200 μl room-temperature Resuspension Buffer (RSB: 10 mM Tris-HCl (pH 7.5), 1.5 mM Mg2Cl, 2 mM EGTA, 1 mM Pefabloc, 1 mM benzamidine, 10 μg/ml aprotinin, 10 μg/ml leupeptin, 0.5% Nonidet P-40). Solubilization of the pellet is aided by placing the eppendorf tube for 30 seconds in a sonicator waterbath. […]

[2] = target: T2, tubulin in 298/D4/40 cells (Homo sapiens, UniProt P07437, T274P); assay: Cell-based tubulin polymerization assay; conditions: 2 hours, up to 1000 nM
T2 construct: endogenous in cells; host or cells: 297/C5/0 and 298/D4/40 sublines of KB-31 (intact cells or hypotonic lysates)
T2 sequence (P07437 whole entry T274P): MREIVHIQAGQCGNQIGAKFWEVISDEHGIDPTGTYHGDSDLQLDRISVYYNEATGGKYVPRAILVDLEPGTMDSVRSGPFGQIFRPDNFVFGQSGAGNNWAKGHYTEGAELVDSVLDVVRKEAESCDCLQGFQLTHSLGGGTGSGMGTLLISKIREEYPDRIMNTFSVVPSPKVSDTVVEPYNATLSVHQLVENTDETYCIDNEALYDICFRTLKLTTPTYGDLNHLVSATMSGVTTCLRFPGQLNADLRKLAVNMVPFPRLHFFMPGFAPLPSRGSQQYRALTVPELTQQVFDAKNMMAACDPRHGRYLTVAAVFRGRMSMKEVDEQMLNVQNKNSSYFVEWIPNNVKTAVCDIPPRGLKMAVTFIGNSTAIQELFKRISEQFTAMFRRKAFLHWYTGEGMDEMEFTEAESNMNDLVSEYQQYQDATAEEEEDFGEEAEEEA
T2 sequence (P68363 whole entry partner): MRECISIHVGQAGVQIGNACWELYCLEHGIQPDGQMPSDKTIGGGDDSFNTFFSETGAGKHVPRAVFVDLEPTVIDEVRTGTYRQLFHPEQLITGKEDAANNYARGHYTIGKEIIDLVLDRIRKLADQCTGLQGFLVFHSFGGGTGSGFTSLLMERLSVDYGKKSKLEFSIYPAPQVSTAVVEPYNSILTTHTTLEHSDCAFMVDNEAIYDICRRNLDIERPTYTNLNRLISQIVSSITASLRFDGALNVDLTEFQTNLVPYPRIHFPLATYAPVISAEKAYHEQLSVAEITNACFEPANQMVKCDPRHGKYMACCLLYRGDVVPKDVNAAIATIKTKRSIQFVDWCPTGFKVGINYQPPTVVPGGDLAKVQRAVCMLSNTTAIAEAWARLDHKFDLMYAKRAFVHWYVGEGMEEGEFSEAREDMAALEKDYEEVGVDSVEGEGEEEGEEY
Experimental: as §1

tubulin in KB-31 cells = target: T3, tubulin in KB-31 cells (Homo sapiens, UniProt P07437); assay: Cell-based tubulin polymerization assay; conditions: 2 hours, 0-1000 nM
T3 construct: decrease in the unpolymerized pool of tubulin in KB-31 cell lysates; endogenous in cells; host or cells: KB-31 human epidermoid carcinoma cells (intact cells or hypotonic lysates)
T3 sequence (P68363 whole entry): as the sequence (P68363 whole entry partner) above
T3 sequence (P07437 whole entry): as the sequence (P07437 whole entry T274P) above, with P274T counted along it
Experimental: as §1

EA40 cells = assay: MTS growth inhibition assay; assay type: cell-based; conditions: EA40 cells, MTS, 72 hours drug; Table 1
Experimental: Growth inhibition may be analyzed using conventional methods, for example a MTS assay (PROMEGA, Wis.) may be used. In this assay approximately 4000 cells per well are seeded in 96 well plates in MEM supplemented with 10% fetal calf serum and incubated at 37° C. in 5.0% CO2. After 24 hours, dilutions of drug (concentration range used is between 1 nM and 1000 nM) are added and cells are allowed to incubate with drug for an additional 72 hours. The MTS reagent mixed with PMS (MTS:PMS 20:1 according to manufacturer's instructions) is then added and absorbance quantitated using a Thermomax microplate reader system according to conventional methods (Molecular Devices, Sunnyvale, Calif.). […] Six assays per drug per plate are performed. […]
As such, epothilone resistant cells would have some degree of cross-resistance to other P-gp substrates that could be reversed by P-gp inhibitors. To investigate this possibility, the cytotoxicity of the P-gp substrates, vincristine, doxorubicine and vinblastine is determined against epothilone A resistant cells using the MTS assay. […] When EA20 and resistant MDA/T0.3 cells are incubated with TAXOL® or epothilone A in the presence of [3′-Desoxy-3′-oxo-MeBmt]^1-[Val]^2-Ciclosporin (PSC-833; a P-gp inhibitor which is disclosed in U.S. Pat. No. 5,525,590), the resistance of MDA/T0.3 cells to TAXOL® is reversed but no effect on the resistance of EA20 to epothilone A is observed.

KB-8511 cells = assay type: cell-based, human
Experimental: Data in Table 4 are gathered according to the following methods: Cells (1×10^3) are seeded in 96-well plates and allowed to adhere for 24 hrs. Compounds are then added as two-fold serial dilutions and incubation continued for an additional 72 hrs. Cell numbers at the beginning and at the end of the experiment are estimated by methylene blue staining of cellular protein mass according to conventional methods. The net mass increase of vehicle-treated cells is set as 100% growth. The IC50 is determined as the drug concentration that leads to half-maximal growth inhibition compared to the control. The resistance factor (RF) for a particular drug is calculated by dividing the IC50 determined on the resistant cell line by that determined on the parental KB-31 cells. Data are presented as average±standard deviation (SD) of three separate experiments, except na=not applicable (n<3). Colchicine-selected KB-8511 cells overexpressing P-glycoprotein served as a reference for the classical multi-drug-resistant phenotype.

T1 sequence (P07437 whole entry T274P): as the sequence (P07437 whole entry T274P) above
T1 sequence (P68363 whole entry partner): as the sequence (P68363 whole entry partner) above

C/C(=C\c1csc(C)n1)[C@@H]1C[C@@H]2O[C@@H]2CCC[C@H](C)[C@H](O)[C@@H](C)C(=O)C(C)(C)[C@@H](O)CC(=O)O1 [Epothilone A, epothilone A]
drug concentrations required to decrease the unpolymerized tubulin fraction [1]: significantly higher | epothilone A-mediated tubulin polymerization [2]: completely refractory | unpolymerized tubulin in intact cells (tubulin in KB-31 cells): dose-dependent decrease in the unpolymerized pool of tubulin | IC50 (EA40 cells): 36 ± 2 nM | RF (resistance factor: IC50 resistant cell line / IC50 parental KB-31) (KB-8511 cells; KB-8511 (Colch selected), 72 hrs, average of three experiments): 0.7 | resistance profile in words (KB-8511 cells; KB-8511 vs parental KB-31): retain full activity
